The values that follow come from paper PMC11253858, “New melphalan derivatives for the treatment of retinoblastoma in combination with thermotherapy” (RSC Medicinal Chemistry, 2024).

In data set [1] the test system is Y79 human retinoblastoma cell line. Kind of data set: Presto blue cell viability assay in Y79 after 24 hours. The class given is cell-based. Particulars: for IC50: Homo sapiens; for fold increase in cytotoxicity (lower IC50) compared to melphalan / cytotoxicity at the elevated temperature relative to 37 °C: Y79, 24 hours; for fold increase in cytotoxicity (lower IC50) compared to melphalan: 37 °C; for cytotoxicity at the elevated temperature relative to 37 °C: 42 °C for 1 hour vs 37 °C. How it is done: The IC50 values were determined using the presto blue cell viability assay (Table 1).
(§1) The human retina (RPE1) and retinoblastoma (Y79) cell lines were purchased from ATCC, Switzerland. RPMI 1640, DMEM high glucose Glutamax and DMEM GlutaMAX media were obtained from Life Technologies, and fetal bovine serum (FBS) was obtained from Sigma. Cell culture was performed in RPMI 1640 with 20% FBS and DMEM high glucose Glutamax with 10% FBS for Y79 and RPE1, respectively. Cell passage was performed twice per week using the appropriate medium and the resulting flaks were maintained in a bioincubator (Thermo Scientific, Switzerland) that controlled the humidity and fixed the CO2 rate to 5%. Cell viability tests were conducted in a flat bottomed 96 or 384 well plate using a compound stock solution prepared in dimethyl sulfoxide (DMSO) for all compounds except Cisplatin. The maximum concentration of DMSO in the wells was 0.1% DMSO.
2. Presto Blue cell viability assay in Y79 after 24 hours
The optimization of the starting concentration was carried out for each tested compound after 24 h of incubation. In order to conduct the tests at the mentioned time lapses, Y79’s work cell solutions were prepared at 10 6 cell/mL for the 24 h experiment. The same protocol as described below was used, however in this case, the experiment was conducted […]
3. Presto Blue cell viability assay in Y79 and RPE1 cells at 72 h […]
tests were conducted using cell work solutions at 4x10^5 and 7x10^5 cell/mL respectively and compound stock solutions were prepared at 10 µM in DMSO. The robotic System (Echo 550 […]
LIQUID HANDLER) charged the 384-cell plate with a decreasing volume of each compound’s SS in order to have a concentration gradient that covers 100 to 0.7 µM. DMSO was added to […]
added in the plate using a disperser (Thermo Scientific Multidrop Combi, Switzerland).
(§2) For thermal assays, the plates were placed in a heat chamber at 42 °C for 1 h and then transferred to a bioincubator at 37 °C for 71 h where the control plates were already placed. After 72 h of a total incubation time, […] of presto blue were added to each well and all the plates were incubated for 1 h at 37 °C. For presto blue cell viability assays, gambogic acid was used at 10 µM and represented the positive control, while DMSO at a final concentration of 0.1% presented the negative control. Fluorescence was measured using a […]
(§3) plate reader (Tecan […] F500 reader, Switzerland) at 560 nm for […] and 590 nm for fluorescence. The normalization of the fluorescence’s intensities was conducted with GraphPad software using Gambogic acid and DMSO as positive and negative control, […]

Data set [2] deals with human retinoblastoma cells (Y79). Kind of data set: Presto Blue cell viability assay in Y79 cells at 72 h. It counts as cell-based. How it is done:
(§4) The cytotoxicity of the two most promising derivatives, i.e.3d and 3e, was subsequently evaluated on human retinoblastoma (Y79) and healthy human retina (RPE1) immortalised cells after 72 hours of incubation in 2D settings under standard conditions, i.e. at 37 °C and 5% CO2, and also under conditions that mimic mild hyperthermia, i.e. at 42 °C for 1 hour followed by 71 hours at 37 °C, respectively, see Table 2.
as §1, with “DMSO. […]” for “DMSO.”
(§5) 3. Presto Blue cell viability assay in Y79 and RPE1 cells at 72 h
(§6) In order to evaluate the cytotoxicity of 3a-3f on Y79 and RPE1 cell lines, cell viability tests were conducted using cell work solutions at 4x10^5 and 7x10^5 cell/mL respectively and compound stock solutions were prepared at 10 µM in DMSO. The robotic System (Echo 550 […]
(§7) LIQUID HANDLER) charged the 384-cell plate with a decreasing volume of each compound’s SS in order to have a concentration gradient that covers 100 to 0.7 µM. DMSO was added to each well so as to have the same final volume of compound’s solution in each well. Cells were added in the plate using a disperser (Thermo Scientific Multidrop Combi, Switzerland).
as §2, §3

Data set [3] has as its system healthy human retina (RPE1) immortalised cells. Kind of data set: Presto Blue cell viability assay in RPE1 cells at 72 h. It counts as cell-based. Particulars: for cytotoxicity to healthy RPE1 cells relative to tumoral Y79 cells (selectivity): 72 hours; for IC50: Homo sapiens, RPE-1. Here is the method:
as §4
as §1, with “DMSO. […]” for “DMSO.”
as §5, §6, §7, §2, §3

In data set [4] the test system is dsDNA oligonucleotide 5'-AGGCAG-3' (B1) / 3'-TCCGTC-5' (B2). Kind of data set: DNA binding ESI-MS study with model double stranded oligonucleotide. Particulars: 37 °C, 48 hours incubation; for adduct formation with the dsDNA oligonucleotide (ESI-MS): 1 : 5 ratio. How it is done: The resulting solutions were measured by electrospray ionization mass spectrometry (ESI-MS) and the analysis of the spectra[45] is provided in the ESI ^† and summarised in Fig. 2a.
Furthermore, the relative amount of melphalan derivative-bound dsDNA follows the same trend as the toxicity of the compounds. […] The relative amount of these adducts decreases with the chain length, which could be a consequence of the higher hydrophobicity of the compounds and hint at a higher resistance to hydrolysis. […] No crosslinked DNA adducts, known to be relevant hallmarks in the melphalan mechanism of action, were detected, probably due to the difficulty to observe them upon ionization.[47]

In data set [5] the test system is myeloma RPMI 8226 cell line. Further details: method as in PMID 32161295. Particulars: cited from earlier work.
Where [6] appears, read: Y79, 1 hour at 42 °C followed by 23 hours at 37 °C, read-out: IC50 42 °C.
[7] abbreviates: Y79, 24 hours at 37 °C, 5% CO2, read-out: IC50 37 °C.
Where [8] appears, read: Y79, 1 hour at 42 °C followed by 71 hours at 37 °C, read-out: Y79 IC50 42 °C.
[9] abbreviates: Y79, 72 hours at 37 °C, read-out: Y79 IC50 37 °C.
[10] abbreviates: RPE1, 1 hour at 42 °C followed by 71 hours at 37 °C, read-out: RPE1 IC50 42 °C.
Setting [11] is: RPE1, 72 hours at 37 °C, read-out: RPE1 IC50 37 °C.

Several values for one entry are separate records, joined by “and”; a condition that tells them apart may be missing. Identical values can stand only once. Like-named read-outs stand apart in the source and are kept apart here.

Consider `N[C@@H](Cc1ccc(N(CCCl)CCCl)cc1)C(=O)OCCC(F)(F)C(F)(F)F` [Compound 3b], for which the IC50 was 1.8 ± 0.1 µM in data set [1] (setting [6]) and 2.2 ± 0.1 µM in data set [1] (setting [7]).

Consider `Cl.N[C@@H](Cc1ccc(N(CCCl)CCCl)cc1)C(=O)OCCC(F)(F)C(F)(F)C(F)(F)C(F)(F)C(F)(F)C(F)(F)F` [Compound 3d], for which the IC50 in data set [1] (setting [6]) is 3.3 ± 0.2 µM; in data set [1] (setting [7]) it was 5.9 ± 0.3 µM; in data set [2] (setting [8]) it was 2.1 ± 0.2 µM; in data set [2] (setting [9]) it was 2.3 ± 0.1 µM; in data set [3] (setting [10]), 31.5 ± 2.7 µM; in data set [3] (setting [11]) it was 39.3 ± 5 µM. In addition, in data set [1], the “fold increase in cytotoxicity (lower IC50) compared to melphalan” value was 5 to 10 fold and 10 fold. Further, in data set [1], the “cytotoxicity at the elevated temperature relative to 37 °C” value was “approximately twice as cytotoxic”. Further, in data set [3], the “cytotoxicity to healthy RPE1 cells relative to tumoral Y79 cells (selectivity)” value is listed as “more than an order of magnitude less cytotoxic”. The “extent of ester cleavage in oligonucleotide adducts (ESI-MS)” value in data set [4] is listed as “more significant”.

As for `Cl.N[C@@H](Cc1ccc(N(CCCl)CCCl)cc1)C(=O)OCCC(F)(F)C(F)(F)C(F)(F)C(F)(F)C(F)(F)C(F)(F)C(F)(F)C(F)(F)F` [Compound 3e], the IC50 amounted to 6.6 ± 0.4 µM in data set [1] (setting [6]); 13 ± 0.4 µM in data set [1] (setting [7]); 4.4 ± 0.3 µM in data set [2] (setting [8]); 4.5 ± 0.1 µM in data set [2] (setting [9]); 42.3 ± 6 µM in data set [3] (setting [10]); 52.8 ± 9.3 µM in data set [3] (setting [11]). Further, the “fold increase in cytotoxicity (lower IC50) compared to melphalan” value in data set [1] is 5 to 10 fold and 5 fold. Besides, the “cytotoxicity at the elevated temperature relative to 37 °C” value in data set [1] was “approximately twice as cytotoxic”. Further, the “cytotoxicity to healthy RPE1 cells relative to tumoral Y79 cells (selectivity)” value in data set [3] is listed as “more than an order of magnitude less cytotoxic”. The “extent of ester cleavage in oligonucleotide adducts (ESI-MS)” value in data set [4] is recorded as “more significant”.

In the case of `CCOC(=O)C(N)Cc1ccc(N(CCCl)CCCl)cc1` (stereo not shown) [ethyl ester derivative of melphalan], in data set [5], the IC50 was 1.2 ± 0.3 µM and the “fold increase in cytotoxicity compared to melphalan” value was 8 fold.

In the case of `N[C@@H](Cc1ccc(N(CCCl)CCCl)cc1)C(=O)OCCC(F)(F)C(F)(F)C(F)(F)C(F)(F)F` [Compound 3c], the IC50 in data set [1] (setting [6]) is 2.1 ± 0.2 µM; in data set [1] (setting [7]), 3.4 ± 0.2 µM.

For `N[C@@H](Cc1ccc(N(CCCl)CCCl)cc1)C(=O)OCCC(F)(F)F` [Compound 3a], the IC50 in data set [1] (setting [6]) was 1.1 ± 0.1 µM; in data set [1] (setting [7]), 1.2 ± 0.1 µM.

Turning to `N[C@@H](Cc1ccc(N(CCCl)CCCl)cc1)C(=O)O` [Melphalan], the half-maximal inhibitory concentration (IC50) in data set [1] (setting [6]) is 26 ± 2 µM; in data set [1] (setting [7]), 59 ± 5 µM. Besides, the “adduct formation with the dsDNA oligonucleotide (ESI-MS)” value in data set [4] was “formed adducts with both strands of the oligonucleotides”.

In the case of `Cl.N[C@@H](Cc1ccc(N(CCCl)CCCl)cc1)C(=O)OCCC(F)(F)C(F)(F)C(F)(F)C(F)(F)C(F)(F)C(F)(F)C(F)(F)C(F)(F)C(F)(F)C(F)(F)F` [Compound 3f], the IC50 in data set [1] (setting [6]) is 183 ± 20 µM; in data set [1] (setting [7]) it was > 200 µM. In addition, the “adduct formation with the dsDNA oligonucleotide (ESI-MS)” value in data set [4] was “no adducts were observed”.

In general, IC50 refers to the concentration that gives 50% inhibition.
